In ChEMBL document CHEMBL1201862, “PubChem BioAssay data set” (2004):
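Results reflect a 48-hour exposure of cells in 96-well plates to compound at five concentrations. GI50: concentration for 50% inhibition of growth.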 Active and inactive are the calls of the source. No stated cut-off is given here; in the data, active = GI50 up to about 1.1 µM and inactive = higher.

How the values were obtained:
Assay in all cases: DTP human tumour cell line panel, 48 h
SK-MEL-28 = tested on: SK-MEL-28
Malme-3M = tested on: Malme-3M
M14 = tested on: M14
RXF 393 = tested on: RXF 393
HOP-62 = tested on: HOP-62
NCI-H522 = tested on: NCI-H522
UACC-257 = tested on: UACC-257
SNB-19 = tested on: SNB-19
OVCAR-3 = tested on: OVCAR-3
HCC 2998 = tested on: HCC 2998
SF-539 = tested on: SF-539
UACC-62 = tested on: UACC-62
HT-29 = tested on: HT-29
ACHN = tested on: ACHN
COLO 205 = tested on: COLO 205
SF-268 = tested on: SF-268
OVCAR-8 = tested on: OVCAR-8
OVCAR-4 = tested on: OVCAR-4

Measured: GI50

C=C(C)C1CC=C(C(=O)O)CC1 (centres undefined)
inactive: SK-MEL-28 1010 µM | Malme-3M 809 µM | M14 1750 µM | RXF 393 942 µM | HOP-62 995 µM | NCI-H522 887 µM | UACC-257 1190 µM | SNB-19 1190 µM | OVCAR-3 877 µM | HCC 2998 1080 µM | SF-539 1070 µM | UACC-62 741 µM | HT-29 1450 µM | ACHN 1020 µM | COLO 205 592 µM | SF-268 1190 µM | OVCAR-8 1200 µM | OVCAR-4 1760 µM

CCCOCN1COCN/C1=N\C#N
inactive: SK-MEL-28 > 100 µM | Malme-3M > 100 µM | M14 > 100 µM | RXF 393 15.3 µM | HOP-62 > 100 µM | NCI-H522 > 100 µM | UACC-257 > 100 µM | SNB-19 > 100 µM | OVCAR-3 > 100 µM | HCC 2998 > 100 µM | SF-539 > 100 µM | UACC-62 > 100 µM | HT-29 48.2 µM | ACHN 52.4 µM | COLO 205 17.9 µM | SF-268 39.1 µM | OVCAR-8 > 100 µM | OVCAR-4 32.1 µM

COc1ccccc1/N=N/c1c(-c2ccccc2)nn(C(=O)CC(=O)Nc2cccc(C)c2)c1-c1ccccc1
inactive: SK-MEL-28 > 100 µM | Malme-3M 45.6 µM | M14 14.7 µM | RXF 393 53.3 µM | HOP-62 19.1 µM | NCI-H522 16.4 µM | UACC-257 27.3 µM | SNB-19 27.2 µM | OVCAR-3 16 µM | HCC 2998 42 µM | SF-539 30 µM | UACC-62 38.8 µM | HT-29 16.4 µM | ACHN 28.4 µM | COLO 205 71.3 µM | SF-268 39.4 µM | OVCAR-8 31.2 µM | OVCAR-4 28.6 µM

Cc1ccc(Sc2ccc(C)cc2[N+](=O)[O-])c([N+](=O)[O-])c1
inactive: SK-MEL-28 > 100 µM | Malme-3M > 100 µM | M14 > 100 µM | RXF 393 > 100 µM | HOP-62 > 100 µM | NCI-H522 > 100 µM | UACC-257 > 10 µM | SNB-19 > 100 µM | OVCAR-3 > 100 µM | HCC 2998 > 100 µM | SF-539 > 100 µM | UACC-62 > 100 µM | HT-29 > 10 µM | ACHN > 100 µM | COLO 205 > 100 µM | SF-268 > 100 µM | OVCAR-8 > 100 µM | OVCAR-4 > 100 µM

CN1C/C(=C\c2ccccc2)C2=NN(C(N)=S)[C@H](c3ccccc3)[C@@H]2C1
inactive: SK-MEL-28 > 100 µM | Malme-3M 36.6 µM | M14 95.1 µM | RXF 393 34.4 µM | HOP-62 > 100 µM | NCI-H522 40 µM | UACC-257 59.2 µM | SNB-19 > 100 µM | OVCAR-3 > 100 µM | HCC 2998 > 100 µM | SF-539 > 100 µM | UACC-62 74.6 µM | HT-29 32.9 µM | ACHN 76.7 µM | COLO 205 38.5 µM | SF-268 > 100 µM | OVCAR-4 56.6 µM

Cc1cccc(C)c1NC(=O)CCC(=O)CC(=O)C(C)C
inactive: SK-MEL-28 > 100 µM | Malme-3M > 100 µM | M14 > 100 µM | RXF 393 > 100 µM | HOP-62 > 100 µM | NCI-H522 > 100 µM | UACC-257 > 100 µM | SNB-19 > 100 µM | OVCAR-3 > 100 µM | HCC 2998 > 100 µM | SF-539 > 100 µM | UACC-62 > 100 µM | HT-29 > 100 µM | ACHN > 100 µM | COLO 205 > 100 µM | SF-268 > 100 µM | OVCAR-8 > 100 µM | OVCAR-4 > 100 µM

Cc1cc(=O)n(-c2ccccc2)c(=O)o1
inactive: SK-MEL-28 > 100 µM | Malme-3M > 100 µM | M14 > 100 µM | RXF 393 > 100 µM | HOP-62 > 100 µM | NCI-H522 62.7 µM | UACC-257 > 100 µM | SNB-19 > 100 µM | OVCAR-3 > 100 µM | HCC 2998 > 100 µM | SF-539 > 100 µM | UACC-62 > 100 µM | HT-29 > 100 µM | ACHN > 100 µM | COLO 205 > 100 µM | SF-268 > 100 µM | OVCAR-4 > 100 µM

CC1OC(n2cc(C(F)(F)F)c(=O)[nH]c2=O)C=CC1=O (centres undefined)
inactive: SK-MEL-28 21 µM | Malme-3M 18.4 µM | M14 22.9 µM | HOP-62 27.7 µM | NCI-H522 16 µM | UACC-257 19.1 µM | SNB-19 16.4 µM | OVCAR-3 17.7 µM | HCC 2998 18.3 µM | SF-539 18.9 µM | UACC-62 21 µM | HT-29 24.5 µM | ACHN 17.5 µM | COLO 205 19.3 µM | SF-268 39.2 µM | OVCAR-8 27.2 µM | OVCAR-4 13.4 µM

COC(=O)C(=O)C(C(=O)C(=O)Nc1ccc(C)cc1C)c1nc2ccccc2nc1O (centres undefined)
inactive: SK-MEL-28 51.9 µM | Malme-3M 57.4 µM | M14 54.8 µM | RXF 393 17.8 µM | HOP-62 39.4 µM | NCI-H522 25 µM | UACC-257 58.7 µM | SNB-19 > 100 µM | OVCAR-3 32.7 µM | HCC 2998 67.3 µM | SF-539 36.6 µM | UACC-62 37.1 µM | HT-29 > 100 µM | ACHN 50 µM | COLO 205 79.3 µM | SF-268 99.1 µM | OVCAR-8 37.7 µM | OVCAR-4 > 100 µM

CCOC(=O)/C(C#N)=C1/C(O)=C(C(=O)OC)C(C(=O)OC)=C1C(=O)OC.c1ccncc1
inactive: SK-MEL-28 > 100 µM | Malme-3M > 100 µM | M14 > 100 µM | RXF 393 > 100 µM | NCI-H522 > 100 µM | UACC-257 > 100 µM | SNB-19 > 100 µM | OVCAR-3 > 100 µM | HCC 2998 > 100 µM | SF-539 > 100 µM | UACC-62 > 100 µM | HT-29 > 100 µM | ACHN > 100 µM | COLO 205 > 100 µM | SF-268 > 100 µM | OVCAR-8 > 100 µM | OVCAR-4 > 100 µM

Cc1c(Cl)ccc2[s+]snc12
inactive: SK-MEL-28 29.4 µM | Malme-3M 49.8 µM | M14 24.5 µM | RXF 393 19.8 µM | HOP-62 51.6 µM | NCI-H522 19.6 µM | UACC-257 30.3 µM | SNB-19 73.3 µM | OVCAR-3 51.3 µM | HCC 2998 88.3 µM | SF-539 21.4 µM | UACC-62 22.3 µM | HT-29 34.4 µM | ACHN 42.2 µM | COLO 205 > 100 µM | SF-268 23.8 µM | OVCAR-8 21.6 µM | OVCAR-4 42.3 µM
